The source of these data is patent US12378227B2, “Therapeutic cocrystals of 3-{[5-(azetidine-1-ylcarbonyl)pyrazin-2-yl]oxy}-5-{[(1S)-1-methyl-2-(methyloxy)ethyl]oxy)-N-(5-methylpyrazin-2-yl)benzamide” (CONDUIT UK MANAGEMENT LTD, priority 2021, dated 2025).

A short description of data set [1]: Polymorphism study (preparation methods 1 and 2 in different solvents). The format is physicochemical. To be noted: methods 1 and 2 using 2-propanol, ethyl acetate, acetonitrile, methyl ethyl ketone and water. The method, then: As AZD1656 is known to exist in six different crystalline forms an investigation was carried out to examine whether Cocrystal 1 could also exist in multiple polymorphic forms. Preparation methods 1 and 2 described above were carried out using 2-propanol, ethyl acetate, acetonitrile, methyl ethyl ketone and water.
As AZD1656 is known to exist in six different crystalline forms an investigation was carried out to examine whether Cocrystal 2 could also exist in multiple polymorphic forms. Preparation methods 1 and 2 described above were carried out using 2-propanol, ethyl acetate, acetonitrile, methyl ethyl ketone and water.

The nature of data set [2]: Solid-state stability study, accelerated storage 40° C./75% RH, 3 months. To be noted: sealed container. The format is physicochemical. The method, then:
A study was carried out to examine the physical stability of the benzamide cocrystals of the invention with respect to solid form conversion or signs of decomposition over time under both ambient and accelerated conditions. 50 mg each of Cocrystal 1, Cocrystal 2, Cocrystal 4, and Cocrystal 5A were separately placed in a sealed container at 40° C. and 75% relative humidity and stored under these conditions for 3 months. After this time all samples remained unchanged in appearance with no signs of deliquescence and no signs of any colour change.

Data set [3] can be described thus: Solid-state stability study, ambient conditions, 12 months. The format is physicochemical. To be noted: clear glass vial. The procedure: A second stability study was carried out where 50 mg each of Cocrystal 1, Cocrystal 2, Cocrystal 3, Cocrystal 4, and Cocrystal 5A were separately placed in a clear glass vial which was then stored under ambient conditions for 12 months. After this time all the cocrystals remained as white solids with no signs of colour change.

Data set [4] can be described thus: Dry milling in ball mill, assessed by eye and by XRPD. Format: physicochemical. The note with it: dry milled, Retsch MM400 ball mill, 2×15 min at 30 Hz, stainless-steel jar. The source says:
In order to prepare cocrystal samples of similar particle size for a dissolution study and to assess the impact of milling on the crystallinity of the cocrystals, Cocrystal 1, Cocrystal 2, Cocrystal 3, Cocrystal 4 and Cocrystal 5a were dry milled using a ball mill. WO 2012/007758 discloses that to achieve satisfactory dissolution of the benzamide compound particle size reduction was required. […] Thus, a solid form of the benzamide compound that could undergo particle size reduction with an efficient recovery rate without the need to use a co-milling excipient is beneficial. The milled cocrystals, Cocrystal 1, Cocrystal 2, Cocrystal 3, Cocrystal 4 and Cocrystal 5a, were therefore assessed by eye for any potential agglomeration issues or excessive sticking to the walls of the milling vessel that might indicate potential adhesion/cohesion issues such as those of the pure benzamide compound.
200 mg each of Cocrystal 1, Cocrystal 2, Cocrystal 3, Cocrystal 4 and Cocrystal 5a were separately placed in a 25 ml stainless-steel milling jar containing a 1 cm stainless steel ball bearing. Each benzamide cocrystal of the invention was dry milled in a Retsch MM400 ball mill for 2×15 min at 30 Hz. The product was assessed by eye and by XRPD.

The conditions of data set [5]: pure benzamide compound, as disclosed in WO 2012/007758; cited from earlier work.

With `COC[C@H](C)Oc1cc(Oc2cnc(C(=O)N3CCC3)cn2)cc(C(=O)Nc2cnc(C)cn2)c1.O=C(O)/C=C/C(=O)O` [Cocrystal 1, 1:1 benzamide fumaric acid], in data set [1], the Polymorphic forms obtained result is “single polymorphic form”. In addition, in data set [2], the Appearance result was “No change” and the “XRPD analysis (form change)” value is “No change”. In data set [3], the Appearance result is on record as “No change” and the “XRPD analysis (form change)” value is “No change”. For the same compound, in data set [4], the “Powder flow / agglomeration after milling (by eye)” value (shortened to “Powder flow / agglomeration”) is “free-flowing powder with no obvious signs of agglomeration”, the “Recoverability from milling chamber / adhesion to walls (by eye)” value is listed as “easily recoverable from the milling chamber with no excessive adhesion to the walls of the milling jar” and the “Signs of loss of crystallinity due to milling (XRPD)” value (shortened to “Signs of loss of crystallinity due”) is reported as “None”.

For `COC[C@H](C)Oc1cc(Oc2cnc(C(=O)N3CCC3)cn2)cc(C(=O)Nc2cnc(C)cn2)c1.O=C(O)/C=C\C(=O)O` [Cocrystal 2, 1:1 benzamide maleic acid], the Polymorphic forms obtained entry in data set [1] is given as “single polymorphic form”. Also, in data set [2], the Appearance result is “No change” and the “XRPD analysis (form change)” value is listed as “No change”. Besides, in data set [3], the Appearance result is “No change” and the “XRPD analysis (form change)” value was “No change”. In addition, in data set [4], the “Powder flow / agglomeration” value is “free-flowing powder with no obvious signs of agglomeration”, the “Recoverability from milling chamber / adhesion to walls (by eye)” value is given as “easily recoverable from the milling chamber with no excessive adhesion to the walls of the milling jar” and the “Signs of loss of crystallinity due” value is given as “None”.

Consider `COC[C@H](C)Oc1cc(Oc2cnc(C(=O)N3CCC3)cn2)cc(C(=O)Nc2cnc(C)cn2)c1.O=C(O)CC(=O)O` [Cocrystal 3, 1:1 benzamide malonic acid], for which, in data set [3], the Appearance entry is “No change” and the “XRPD analysis (form change)” value was “No change”. For the same compound, in data set [4], the “Powder flow / agglomeration” value was “free-flowing powder with no obvious signs of agglomeration”, the “Recoverability from milling chamber / adhesion to walls (by eye)” value is given as “easily recoverable from the milling chamber with no excessive adhesion to the walls of the milling jar” and the “Signs of loss of crystallinity due” value was “None”.

Turning to `COC[C@H](C)Oc1cc(Oc2cnc(C(=O)N3CCC3)cn2)cc(C(=O)Nc2cnc(C)cn2)c1.O.O=C(O)C(O)C(O)C(=O)O` [Cocrystal 4, 1:1 benzamide L-tartaric acid hydrate], in data set [2], the Appearance result is “No change” and the “XRPD analysis (form change)” value is recorded as “No change”. Besides, in data set [3], the Appearance result is listed as “No change” and the “XRPD analysis (form change)” value is listed as “No change”. In data set [4], the “Powder flow / agglomeration” value is given as “free-flowing powder with no obvious signs of agglomeration”, the “Recoverability from milling chamber / adhesion to walls (by eye)” value is recorded as “easily recoverable from the milling chamber with no excessive adhesion to the walls of the milling jar” and the “Signs of loss of crystallinity due” value is recorded as “None”.

With `COC[C@H](C)Oc1cc(Oc2cnc(C(=O)N3CCC3)cn2)cc(C(=O)Nc2cnc(C)cn2)c1.O=C(O)c1cc(O)ccc1O` [Cocrystal 5A, 1:1 benzamide gentisic acid form 1], in data set [2], the Appearance result is given as “No change” and the “XRPD analysis (form change)” value is recorded as “No change”. In data set [3], the Appearance entry is on record as “No change” and the “XRPD analysis (form change)” value is reported as “No change”. In data set [4], the “Powder flow / agglomeration” value is reported as “free-flowing powder with no obvious signs of agglomeration”, the “Recoverability from milling chamber / adhesion to walls (by eye)” value was “easily recoverable from the milling chamber with no excessive adhesion to the walls of the milling jar” and the “Signs of loss of crystallinity due” value was “None”.

Consider `COC[C@H](C)Oc1cc(Oc2cnc(C(=O)N3CCC3)cn2)cc(C(=O)Nc2cnc(C)cn2)c1` [benzamide compound, 3-{[5-(azetidine-1-ylcarbonyl)pyrazin-2-yl]oxy}-5-{[(1S)-1-methyl-2-(methyloxy)ethyl]oxy}-N-(5-methylpyrazin-2-yl)benzamide], for which the “Adhesion on dry milling” value in data set [5] was “excessive adhesion to the stainless-steel walls of the milling vessel resulting in low recovery yields”.
